{"source": "patent US20090149482A1", "about": "“STEREOCHEMICALLY DEFINED DIPEPTIDE ESTERS OF ANTIVIRAL AGENTS FOR ENHANCED OCULAR TREATMENT” (priority 2001, published 2009)", "key": {"Aqueous solubility": {"assay": "Aqueous solubility", "assay_type": "physicochemical"}, "HSV-1": {"tested_on": "HSV-1", "assay": "In vitro antiviral screening, CPE inhibition in HFF cells", "assay_type": "cell-based, herpes simplex virus 1", "conditions": "Human alphaherpesvirus 1, HFF"}, "HSV-2": {"tested_on": "HSV-2", "assay": "In vitro antiviral screening, CPE inhibition in HFF cells", "assay_type": "cell-based, herpes simplex virus 2", "conditions": "Human alphaherpesvirus 2, HFF; HSV-2, CPE Inhibition"}, "EBV": {"tested_on": "EBV", "assay": "In vitro antiviral screening, VCA Elisa", "assay_type": "cell-based, epstein-barr virus", "conditions": "human gammaherpesvirus 4; EBV, VCA Elisa"}, "hPEPT1": {"target": "T1, hPEPT1 (Homo sapiens, UniProt P46059)", "T1 construct": "endogenous in cells; host or cells: Caco-2 (human colon carcinoma, ATCC)", "T1 sequence (P46059 1-708)": "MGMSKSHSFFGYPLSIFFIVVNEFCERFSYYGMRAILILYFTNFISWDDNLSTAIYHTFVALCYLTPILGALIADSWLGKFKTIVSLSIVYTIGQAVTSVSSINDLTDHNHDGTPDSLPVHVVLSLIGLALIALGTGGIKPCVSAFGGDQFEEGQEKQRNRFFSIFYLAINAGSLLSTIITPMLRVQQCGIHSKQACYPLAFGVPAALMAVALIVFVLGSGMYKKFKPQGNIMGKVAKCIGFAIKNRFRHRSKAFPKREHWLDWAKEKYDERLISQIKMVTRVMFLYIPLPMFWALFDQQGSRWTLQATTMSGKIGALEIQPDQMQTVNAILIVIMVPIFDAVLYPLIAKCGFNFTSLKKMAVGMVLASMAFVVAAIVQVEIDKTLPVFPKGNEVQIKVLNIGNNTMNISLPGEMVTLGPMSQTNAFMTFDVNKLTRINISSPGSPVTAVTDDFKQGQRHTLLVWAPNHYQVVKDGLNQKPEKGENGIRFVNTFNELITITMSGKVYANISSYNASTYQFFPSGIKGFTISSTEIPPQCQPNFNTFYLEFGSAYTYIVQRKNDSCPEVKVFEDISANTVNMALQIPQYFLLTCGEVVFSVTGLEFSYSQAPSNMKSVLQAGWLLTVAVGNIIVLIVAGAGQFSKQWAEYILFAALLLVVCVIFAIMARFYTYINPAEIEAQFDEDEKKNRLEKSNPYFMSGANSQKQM", "assay": "[3H] Glycylsarcosine uptake and its inhibition in Caco-2 cells (affinity towards peptide transporter)", "assay_type": "cell-based", "conditions": "for Ki: read-out: Ki", "from_the_text": "Materials: [^3H] Glycylsarcosine (Gly-Sar; 4 Ci/mmol) was purchased from Moravek Biochemicals (Brea, Calif.) and [^14C] Mannitol (50 mCi/mmol) was supplied by Amersham (Piscataway, N.J.). Human colon carcinoma derived Caco-2 cells were obtained from American Type Culture Collection (ATCC, Rockville, Md.). The growth medium, Dulbecco's modified Eagle Medium was obtained from Life Technologies (Grand Island, N.Y.). […] Fetal bovine serum (FBS) was purchased from JRH Biosciences (Lenexa, Kans.). Culture flasks (75 cm^2 growth area), polyester Transwells® (pore size 0.4 Cm with diameter 6.5 mm) and polyester membranes (pore size 0.4 Cm) were procured from Costar (Bedford, Mass.). The buffer components and solvents were obtained from Fisher Scientific (St. Louis, Mo.). All the di-peptide esters of acyclovir were custom synthesized in our laboratory. […] Cell Culture: All cultures were maintained in humidified incubator at 37° C. with a 5% carbon dioxide in air atmosphere. Caco-2 cells were obtained at passage 25 from American Type Culture Collection (ATCC) and grown in plastic tissue culture flasks. […] When 80% confluent, these cells were removed by treating them with Trypsin/EDTA and plated at a density of 100,000 cells/cm^2 on collagen coated plastic dishes containing clear polyester membranes (0.636 cm^2, […]) or 12-well tissue culture treated plastic plates. Cells were then grown in medium containing 10% FBS (heat-inactivated). […] [^14C] […] Metabolism studies in Cell Suspensions: Confluent Caco-2 cells, grown in tissue culture flasks were isolated with the aid of mechanical scraper and washed thrice with DPBS. […] One-hundred micro-liters of samples were withdrawn at predetermined time intervals and the sample was purified by precipitating the cellular proteins into the organic solvent mixture and stored at −80° C. until further analysis. The protein content of the cell suspension was determined by the method of Bradford using bovine serum albumin as the standard (BioRad protein estimation kit, Hercules, Calif.). […] Transport studies: Transport experiments were done using Side-Bi-Side™ diffusion cells (type VSC-1, Crown Glass Company Inc.) and Transwell® inserts. Prior to the experiment with Gly-Sar, Caco-2 cell monolayers grown on the clear polyester membranes and Transwell® inserts were washed with DPBS (pH 6.0) and incubated at 37° C. Freshly prepared drug solutions in DPBS (pH 6.0) was placed in the donor chamber and the receiver chamber was filled with DPBS. The volumes of donor and receptor chambers were 3 ml each for Side-Bi-Side™ diffusion cells and 0.5 ml and 1.5 ml respectively for Transwell® inserts. […] The samples were stored at −80° C. until analyzed HPLC. All experiments were performed at 37° C. […] The concentration dependent uptake of glycylsarcosine was studied using [^3H] […] For Dixon plots and Dose Response studies [^3H] […] Following incubation, the cell monolayers were washed three times with ice-cold HEPES buffer to terminate the uptake experiment. After the washings cells were lysed overnight using 1 ml 0.1% (w/v) Triton X-100 in 0.3 N NaOH at room temperature. Aliquots (500 μl) from each well were then transferred to scintillation vials containing 5 ml scintillation cocktail (Fisher Scientific, Fairlawn, N.J.). […] The amount of protein in the cell lysate was measured by the BioRad protein estimation kit using bovine serum albumin as standard (BioRad Protein estimation Kit, Hercules, Calif.). Analytical Procedures: All samples were assayed using HPLC. […] The column used was a C18 Luna column 4.6×250 mm (Phenomenex). The mobile phase consisted of a mixture of buffer and an organic modifier. The percentage of organic phase was varied in order to elute compounds of interest."}, "[1]": {"tested_on": "rabbit corneal cell line (SIRC)", "conditions": "SIRC cells"}, "[2]": {"conditions": "New Zealand albino, rabbit"}, "in vitro [3]": {"assay": "in vitro", "conditions": "New Zealand albino, rabbit"}, "Caco-2 cell suspension": {"tested_on": "Caco-2 cell suspension", "conditions": "Caco-2 cell suspension at pH 7.4; * = no intact drug detected during the experiment"}, "[4]": {"tested_on": "oligopeptide transporter on the rabbit cornea", "conditions": "+10 mM of the ester"}, "in vitro [5]": {"assay": "in vitro", "conditions": "human, Caco-2, pH 7.4"}, "[6]": {"assay": "Corneal permeation across freshly excised rabbit cornea", "conditions": "New Zealand albino"}}, "note": "Read-outs that look alike come from different tables or passages of the source.", "data": [{"smiles": "Nc1nc2c(ncn2COCCO)c(=O)[nH]1", "note": "[ACV, 2-amino-1,9-dihydro-9-[(2-hydroxyethoxy)methyl]-6H-purin-6-one]", "values": [{"measurement": "solubility", "setting": "Aqueous solubility; 25° C.", "value": 2500, "unit": "µg/mL"}, {"measurement": "solubility", "setting": "Aqueous solubility; aqueous medium, 37° C., read-out: saturable solubility", "value": 2000, "unit": "µg/mL"}, {"measurement": "EC50", "setting": "HSV-1; read-out: EC50 (concentration required to inhibit viral cytopathogenicity by 50%), HSV-1, CPE Inhibition", "value": 7.1, "unit": "µM"}, {"measurement": "EC50", "setting": "HSV-1; HSV-1, running text, read-out: EC50 against HSV-1", "value": 7.1, "unit": "µM"}, {"measurement": "EC50", "setting": "HSV-2", "value": 6.6, "unit": "µM"}, {"measurement": "EC50", "setting": "EBV", "value": 7.5, "unit": "µM"}, {"measurement": "effect on the uptake of [3H] Gly-Sar", "setting": "hPEPT1; Caco-2, pH 6.0, 10 minutes", "value": "did not inhibit"}, {"measurement": "percent survival", "setting": "[1]; 0.025 mM", "value": 94.71, "unit": "%"}, {"measurement": "percent survival", "setting": "[1]; 0.1 mM", "value": 89.41, "unit": "%"}, {"measurement": "percent survival", "setting": "[1]; 0.5 mM", "value": 69.81, "unit": "%"}, {"measurement": "percent survival", "setting": "[1]; 1 mM", "value": 57.37, "unit": "%"}, {"measurement": "% viable cells", "setting": "[1]; 5 mM", "value": "49.1±4.2", "unit": "%"}, {"measurement": "percent survival", "setting": "[1]; 5 mM", "value": 49.12, "unit": "%"}, {"measurement": "Papp", "setting": "[2]", "value": 4.24, "unit": "×10⁻⁶ cm/s"}, {"measurement": "Papp", "setting": "in vitro [3]", "value": "4.24 ± 1.41", "unit": "×10⁻⁶ cm/s"}]}, {"smiles": "CC(C)C(NC(=O)C(N)Cc1ccc(O)cc1)C(=O)OCCOCn1cnc2c(=O)[nH]c(N)nc21", "note": "(stereo not drawn) [Tyr-Val-ACV]", "values": [{"measurement": "Vmax of Gly-Sar uptake in presence of the drug", "setting": "hPEPT1; Gly-Sar with drug (10 mM), Lineweaver-Burk", "value": "0.091 ± 0.07", "unit": "µmol/min/mg"}, {"measurement": "Ki", "setting": "hPEPT1; Lineweaver-Burk", "value": "4110 ± 320", "unit": "µM"}, {"measurement": "Ki", "setting": "hPEPT1; Michaelis-Menten", "value": "4960 ± 970", "unit": "µM"}, {"measurement": "10^2 × kobs", "setting": "Caco-2 cell suspension", "value": "10.1 ± 0.46", "unit": "min^−1mg^−1 protein"}, {"measurement": "hydrolytic rate constant k", "setting": "Aqueous Humor", "value": "2.3 (±0.11) k × 10^3 min^−1 mg^−1 protein"}, {"measurement": "hydrolytic rate constant k", "setting": "Cornea homogenate", "value": "4.9 (±0.69) k × 10^3 min^−1 mg^−1 protein"}, {"measurement": "hydrolytic rate constant k", "setting": "Iris-Ciliary Body homogenate", "value": "5.3 (±0.74) k × 10^3 min^−1 mg^−1 protein"}, {"measurement": "hydrolytic rate constant k", "setting": "Lens homogenate", "value": "3.1 (±0.63) k × 10^3 min^−1 mg^−1 protein"}, {"measurement": "hydrolytic rate constant k", "setting": "Vitreous Humor", "value": "1.7 (±0.56) k × 10^3 min^−1 mg^−1 protein"}, {"measurement": "Papp (% Control) of [3H] Val-ACV", "setting": "[4]", "value": "31.1 (±9.5) % Control"}, {"measurement": "half-life at 0.2 mM", "setting": "in vitro [5]", "value": "6.9 ± 0.3", "unit": "min"}, {"measurement": "Papp at 3 h", "setting": "[6]", "value": 7.19, "unit": "×10⁻⁶ cm/s"}]}]}
